{"source": "paper PMC10147923", "about": "“Pain-causing stinging nettle toxins target TMEM233 to modulate NaV1.7 function” (Nature Communications, 2023)", "key": {"hNaV1.3": {"tested_on": "hNaV1.3", "assay": "Persistent current, HEK293-hNaV1.3/β1", "assay_type": "cell-based, human", "details": "ExTxA 1 µM"}, "hNaV1.7/TMEM233": {"tested_on": "hNaV1.7/TMEM233", "assay": "Persistent current, Xenopus oocytes hNaV1.7/TMEM233", "assay_type": "cell-based, human", "experimental": "Human NaV1.7 and TMEM233 genes cloned into pcDNA3.1 plasmid were linearized with NotI restriction enzyme and used as template for cRNA synthesis using T7 polymerase (mMessage mMachine Kit; Life Technologies). Stage V/VI oocytes were injected with 5–20 ng total RNA, then incubated at 17 °C for 1–3 days in 50% Leibovitz’s L-15 medium (Gibco), supplemented with 25 µg/mL gentamicin, 25 µg/mL streptomycin, and 2.5% fetal horse serum. Two-electrode voltage clamp (Axoclamp 900 A amplifier; Axon Instruments) were performed at room temperature in ND96 solution (in mM: 96 NaCl, 2 KCl, 1 MgCl2, 1.8 CaCl2, 5 HEPES; pH 7.4 with NaOH) with a ∼40 μL recording chamber. In experiments where ExTxA was added, solutions were supplemented with 0.05% fatty-acid free bovine serum albumin. Borosilicate glass microelectrodes had resistances of 0.2–0.8 MΩ when backfilled with 3 M KCl. Data were digitized at 20 kHz and filtered at 2 kHz using pCLAMP 11 software (Digidata 1550B; Axon Instruments).\nExTxA activity was assayed at 1 µM, analyzing the current from a 50 ms step to −10 mV every 10 s, from a holding volage of −80 mV. For all other voltage protocols, oocytes were held at −90 mV. Activation curves were obtained by measuring peak currents during steps from −100 mV to +60 mV in +10 mV increments applied every 10 s, with G/Gmax plot between −80 mV and +10 mV. Steady-state inactivation curves plot the peak current at a test pulse of −10 mV, after a 200 ms pre-pulse from −100 mV to +40 mV in +10 mV increments applied every 10 s. Slow inactivation curves plot the peak current at a test pulse of −10 mV, after a 10 s pre-pulse from −110 mV to −10 mV in +10 mV increments applied every 20 s. To determine recovery from inactivation, oocytes were first stepped to −10 mV, then rested at −90 mV for a variable time interval indicated in the graph, then a second −10 mV depolarization applied to determine the fraction of channls recovered. This protocol was applied every 13 s (time between each initial −10 mV step)."}, "NaV1.8": {"tested_on": "NaV1.8", "assay_type": "cell-based, mouse"}, "[1]": {"tested_on": "NaV1.7Advill knockout mice", "assay": "Nocifensive behaviors after intraplantar injection, NaV1.7Advill mice", "assay_type": "in vivo, mouse", "details": "i.pl. ExTxA 10 nM", "text": "Tmem233^Cre animals were generated and genotyped as previously described, with a Kozak-Cre-pA cassette replacing the ATG start codon of the murine Tmem233 gene to produce a functional knockout in homozygous animals. NaV1.7^Advill mice lacking functional NaV1.7 in all sensory neurons were generated and genotyped as previously described[33] by crossing Advillin-Cre mice with floxed Scn9a animals in which loxP sites were inserted in introns flanking exons 14 and 15[34],[35]. NaV1.9^−/− mice and NaV1.8^Cre/Cre mice, in which Cre recombinase substitutes the translational start-site of NaV1.8, were generated and sequenced as previously described[34],[36],[37].\nNocifensive responses to intraplantar administration of ExTxA (5–10 nM) were assessed as previously described. In brief, ExTxA was diluted in sterile saline/0.1% BSA and administered by an intraplantar injection (40 μL) into a single hind paw of Tmem233^Cre/Cre, NaV1.7^Advill and wild-type littermate controls. Pain behaviors, consisting of paw licks or flinches, were counted from video recordings by a blinded investigator for up to 60 min following injection."}, "TMEM233": {"target": "TMEM233 (Homo sapiens, UniProt B4DJY2)", "sequence (B4DJY2 whole entry)": "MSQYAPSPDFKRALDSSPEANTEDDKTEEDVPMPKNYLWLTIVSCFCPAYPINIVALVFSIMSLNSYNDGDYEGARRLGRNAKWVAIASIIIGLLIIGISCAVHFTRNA", "assay": "Currents in Cos-1 cells transfected with TMEM233 only", "assay_type": "cell-based", "experimental": "Whole-cell patch clamp experiments involving HEK293, COS-1, CHO, ND7/23, F11, SH-SY5Y and TE-671 cells were performed on a QPatch II automated electrophysiology platform (Sophion Bioscience, Ballerup, Denmark) as previously described. Cells at approximately 70–80% confluency were harvested from T75 flasks using TrypLE Express at 37 °C for 2–5 min and resuspended in DMEM with 25 mM HEPES (Sigma-Aldrich, NSW, Australia), 100 U/mL Penicillin-Streptomycin (Gibco) and 40 µg/mL trypsin inhibitor from Glycine max (soybean) (Sigma Aldrich) prior to recovery on a QStirrer (Sophion) for 30 min. 16-channel patch plates with a patch hole diameter of 1 μm and resistance of 2 ± 0.02 MΩ were used. Cell positioning and sealing parameters were as follows: positioning pressure −60 mbar, minimum seal resistance 0.1 GΩ, holding potential −100 mV, holding pressure −20 mbar. Whole-cell currents were filtered at 5 kHz and acquired at 25 kHz. Series resistance compensation was used and set to 70%."}, "NaV1.7/TMEM233": {"target": "NaV1.7/TMEM233 (Homo sapiens, UniProt B4DJY2+Q15858)", "assay": "Ramp currents with ExTxA, HEK293 NaV1.7/TMEM233", "assay_type": "cell-based"}}, "note": "“And” between values parts separate entries of the source, which are not always exact repeats. Equal values may be shown once. Positions of bridges follow the written chain, without caps; N, C: chain ends. Residues, ends and D or L forms follow the SMILES beside them."}
{"smiles": "CC[C@H](C)[C@@H]1NC(=O)[C@H](CCCNC(=N)N)NC(=O)[C@H](Cc2ccccc2)NC(=O)[C@H](CC(C)C)NC(=O)[C@H](CO)NC(=O)[C@@H]2CSSC[C@@H]3NC(=O)[C@H]([C@@H](C)O)NC(=O)[C@H](CSSC[C@H](NC(=O)[C@H](CCCNC(=N)N)NC(=O)[C@@H]4CCCN4C(=O)[C@@H](N)CC(C)C)C(=O)N[C@@H](CC(=O)O)C(=O)N[C@@H](CO)C(=O)N4CCC[C@H]4C(=O)N[C@@H](Cc4ccccc4)C(=O)N2)NC(=O)[C@H](CCCCN)NC(=O)[C@H](CC(=O)O)NC(=O)CNC(=O)[C@H](CSSC[C@@H](C(=O)N[C@H](C(=O)N2CCC[C@H]2C(=O)N[C@@H](CC(=O)O)C(=O)N[C@H](C(=O)O)C(C)C)C(C)C)NC(=O)[C@H](CC(C)C)NC(=O)CNC(=O)[C@H](Cc2ccccc2)NC(=O)[C@H]([C@@H](C)CC)NC(=O)[C@@H]2CCCN2C(=O)[C@H](CC(C)C)NC(=O)[C@@H]2CCCN2C(=O)[C@H](C(C)C)NC3=O)NC(=O)[C@H](CC(C)C)NC(=O)CNC1=O", "note": "[ExTxA, excelsatoxin A] (H-LPRCDSPFCSLFRIGLCGDKCTCVPLPIFGLCVPDV-OH; disulfide 4-21, 9-23, 17-32)", "values": [{"measurement": "persistent current (I40 ms/Ipeak)", "setting": "hNaV1.3; individual cells", "value": "0.0261 and 0.07967 and 0.01209 and 0.007119 and 0.06666 and 0.04746 and 0.006524 and 0.006085 and 0.07156 and 0.01737 and 0.02558 and -0.00907 and 0.002307 and 0.02027 (2×) and 0.01594 and 0.04935 and 0.06033 and 0.03164 and 0.000895 and 0.0334 and 0.008347 and 0.02877"}, {"measurement": "Δ persistent current (I40 ms/Ipeak; buffer cf. ExTxA)", "setting": "hNaV1.3; mean", "value": "0.0265 ± 0.0049 and 0.02645"}, {"measurement": "Xenopus oocyte persistent current (I40 ms/Ipeak)", "setting": "hNaV1.7/TMEM233", "value": "0.727 ± 0.020"}, {"measurement": "Nav:TMEM, 1:1 molar, mean (persistent current)", "setting": "hNaV1.7/TMEM233; Supplementary Fig 1f, 1 uM, toxin not named, mean of n = 6, Control mean 0.0806, n = 6", "value": 0.727}, {"measurement": "Nav:TMEM, 1:1 molar, individual values (persistent current)", "setting": "hNaV1.7/TMEM233; Supplementary Fig 1f, 1 uM, toxin not named, single replicates", "value": "0.6869 and 0.7919 and 0.702 and 0.7846 and 0.7038 and 0.6927"}, {"measurement": "Nav:TMEM, 1:1 molar, difference between means (1 uM - Control) ± SEM", "setting": "hNaV1.7/TMEM233; Supplementary Fig 1f, unpaired t test P <0.0001, 95% CI 0.5949 to 0.6979", "value": "0.6464 ± 0.0231"}, {"measurement": "DRG NaV1.8 Δ persistent current (I40 ms/Ipeak)", "setting": "NaV1.8", "value": "0.050 ± 0.015"}, {"measurement": "Difference between means (B - A), wildtype minus Scn9a-/-", "setting": "[1]", "value": "279.3 ± 22.82"}, {"measurement": "nocifensive responses in knockout mice", "setting": "[1]", "value": "abolished"}, {"measurement": "cumulative flinches (60 min)", "setting": "[1]; 40 μL, NaV1.7Advill, mean, n = 4", "value": "40.0 ± 6.5 and 40"}, {"measurement": "cumulative flinches (60 min)", "setting": "[1]; NaV1.7Advill (Scn9a-/-), individual animals", "value": "32 and 43 and 57 and 28"}, {"measurement": "ExTxA-induced persistent current", "setting": "TMEM233", "value": "-7.493 ± 8.833"}, {"measurement": "ExTxA-induced currents, TMEM233 alone", "setting": "TMEM233; cells lacking endogenous NaV currents", "value": "did not result in either voltage-gated or ExTxA-induced currents"}, {"measurement": "Ramp current (0.2 mV/s)", "setting": "NaV1.7/TMEM233", "value": "-1.952 ± 0.950", "unit": "nA"}, {"measurement": "Ramp current", "setting": "NaV1.7/TMEM233; NaV1.7-TMEM233 + ExTxA (100 nM), individual cells", "value": "-2.267 and -0.5155 and -0.3095 and -7.0521 and -0.7027 and -0.3607 and -2.095 and -0.6283"}, {"measurement": "currents induced by slow voltage-ramps", "setting": "NaV1.7/TMEM233; extracellular ExTxA", "value": "an increase of currents induced by slow voltage-ramps"}]}
